system: JAK; test: Biochemical Kinase Assay Protocol (JAK); details: compared to compounds of the disclosure
Description: Biochemical Kinase Assay Protocol (JAK, TrkA, Syk, Tyk2)
Reagent: Base Reaction buffer; 20 mM Hepes (pH 7.5), 10 mM MgCl2, 1 mM EGTA, 0.02% Brij™ 35, 0.02 mg/ml BSA, 0.1 mM Na3VO4, 2 mM DTT, 1% DMSO, where required cofactors are added individually to each kinase reaction.
• 1. Prepare indicated substrate in freshly prepared Base Reaction Buffer • 2. Deliver any required cofactors to the substrate solution above • 3. Deliver indicated kinase (JAK or TrkA) into the substrate solution and gently mix • 4. Deliver compounds in DMSO into the kinase reaction mixture by Acoustic technology (Echo550; nanoliter range), incubate for 20 minutes at room temperature • 5. Deliver 33P-ATP into the reaction mixture to initiate the reaction. • 6. Incubate kinase reaction for 2 hours at room temperature • 7. Reactions are spotted onto P81 ion exchange paper • 8. Detect kinase activity by filter-binding method. PDE4B Phosphodiesterase Assay

| Structure (SMILES) | JAK activity |
| --- | --- |
| Cc1cnc(N(C)c2ccc3c(c2)COB3O)nc1OC1CCCCC1 [A, 5-((4-(cyclohexyloxy)-5-methylpyrimidin-2-yl)(methyl)amino)benzo[c][1,2]oxaborol-1(3H)-ol, reference compound] | no JAK activity or significantly decreased JAK activity |
| Cc1cnc(N(C)c2ccc3c(c2)COB3O)nc1NC1CCCC1 [B, 5-((4-(cyclopentylamino)-5-methylpyrimidin-2-yl)(methyl)amino)benzo[c][1,2]oxaborol-1(3H)-ol, reference compound] | no JAK activity or significantly decreased JAK activity |

same assay, conditions: compound list; + = noted target activity, number of * = preference

| Structure (SMILES) | Activity Note: JAK |
| --- | --- |
| Cc1cnc(Nc2ccc3c(c2)C(C)OB3O)nc1Nc1ccccc1 (stereo not shown) [3-methyl-5-((5-methyl-4-(phenylamino)pyrimidin-2-yl)amino)benzo[c][1,2]oxaborol-1(3H)-ol] | JAK+*** |
| Cc1cnc(Nc2cc(Cl)c3c(c2)C(C)(C)OB3O)nc1Nc1ccccc1 [7-chloro-3,3-dimethyl-5-((5-methyl-4-(phenylamino)pyrimidin-2-yl)amino)benzo[c][1,2]oxaborol-1(3H)-ol] | JAK+*** |
| Cc1cnc(Nc2ccc3c(c2C)B(O)OC3)nc1Nc1cccc(S(C)(=O)=O)c1 [7-methyl-6-((5-methyl-4-((3-(methylsulfonyl)phenyl)amino)pyrimidin-2-yl)amino)benzo[c][1,2]oxaborol-1(3H)-ol] | JAK+* |
| Cc1cnc(Nc2ccc3c(c2)C(C)OB3O)nc1NC1CCCC1 (stereo not shown) [5-((4-(cyclopentylamino)-5-methylpyrimidin-2-yl)amino)-3-methylbenzo[c][1,2]oxaborol-1(3H)-ol] | JAK+*** |
| CC1(C)OB(O)c2c(Cl)cc(Nc3ncc(Cl)c(NC4CCCC4)n3)cc21 [7-chloro-5-((5-chloro-4-(cyclopentylamino)pyrimidin-2-yl)amino)-3,3-dimethylbenzo[c][1,2]oxaborol-1(3H)-ol] | JAK+*** |
| Cc1cnc(Nc2ccc3c(c2)B(O)OC3)nc1NC1CCC(C)CC1 (stereo not shown) [6-((5-methyl-4-((4-methylcyclohexyl)amino)pyrimidin-2-yl)amino)benzo[c][1,2]oxaborol-1(3H)-ol] | JAK+** |
| CCc1cc(Nc2ncc(Cl)c(NC3CCCC3)n2)cc2c1B(O)OC2 [5-((5-chloro-4-(cyclopentylamino)pyrimidin-2-yl)amino)-7-ethylbenzo[c][1,2]oxaborol-1(3H)-ol] | JAK+*** |
| Cc1cnc(Nc2cc(C)c3c(c2)CCOB3O)nc1NC1CCCC1 [6-((4-(cyclopentylamino)-5-methylpyrimidin-2-yl)amino)-8-methyl-3,4-dihydro-1H-benzo[c][1,2]oxaborinin-1-ol] | JAK+* |
| Cc1cnc(Nc2ccc3c(c2)B(O)OC3(C)C)nc1Nc1cccc(S(C)(=O)=O)c1 [3,3-dimethyl-6-((5-methyl-4-((3-(methylsulfonyl)phenyl)amino)pyrimidin-2-yl)amino)benzo[c][1,2]oxaborol-1(3H)-ol] | JAK+** |
| CCC(CC)Nc1nc(Nc2cc(Cl)c3c(c2)COB3O)ncc1C [7-chloro-5-((5-methyl-4-(pentan-3-ylamino)pyrimidin-2-yl)amino)benzo[c][1,2]oxaborol-1(3H)-ol] | JAK+*** |
| CCC(CC)Nc1nc(Nc2cc(Cl)c3c(c2)C(C)(C)OB3O)ncc1C [7-chloro-3,3-dimethyl-5-((5-methyl-4-(pentan-3-ylamino)pyrimidin-2-yl)amino)benzo[c][1,2]oxaborol-1(3H)-ol] | JAK+*** |
| Cc1cnc(Nc2ccc3c(c2)B(O)OC3)nc1NC1CCN(C)CC1 [6-((5-methyl-4-((1-methylpiperidin-4-yl)amino)pyrimidin-2-yl)amino)benzo[c][1,2]oxaborol-1(3H)-ol] | JAK+* |
| CC1OB(O)c2ccc(Nc3ncc(Cl)c(NC4CCCC4)n3)cc21 (stereo not shown) [5-((5-chloro-4-(cyclopentylamino)pyrimidin-2-yl)amino)-3-methylbenzo[c][1,2]oxaborol-1(3H)-ol] | JAK+*** |
| COc1cc(Nc2ncc(C)c(SC)n2)cc2c1B(O)OC2 [7-methoxy-5-((5-methyl-4-(methylthio)pyrimidin-2-yl)amino)benzo[c][1,2]oxaborol-1(3H)-ol] | JAK+** |
| CCc1cc(Nc2ncc(C)c(Nc3ccccc3)n2)cc2c1B(O)OC2 [7-ethyl-5-((5-methyl-4-(phenylamino)pyrimidin-2-yl)amino)benzo[c][1,2]oxaborol-1(3H)-ol] | JAK+*** |

biological target: T1, Recombinant human PDE4B (Homo sapiens, UniProt Q07343); test: PDE4B Phosphodiesterase Assay; type: biochemical; details: compared to compounds of the disclosure
T1 construct: aa 305-end; GST (N); made in house; host or cells: Sf9 insect cells (baculovirus)
T1 sequence (Q07343 305-736 limits assumed): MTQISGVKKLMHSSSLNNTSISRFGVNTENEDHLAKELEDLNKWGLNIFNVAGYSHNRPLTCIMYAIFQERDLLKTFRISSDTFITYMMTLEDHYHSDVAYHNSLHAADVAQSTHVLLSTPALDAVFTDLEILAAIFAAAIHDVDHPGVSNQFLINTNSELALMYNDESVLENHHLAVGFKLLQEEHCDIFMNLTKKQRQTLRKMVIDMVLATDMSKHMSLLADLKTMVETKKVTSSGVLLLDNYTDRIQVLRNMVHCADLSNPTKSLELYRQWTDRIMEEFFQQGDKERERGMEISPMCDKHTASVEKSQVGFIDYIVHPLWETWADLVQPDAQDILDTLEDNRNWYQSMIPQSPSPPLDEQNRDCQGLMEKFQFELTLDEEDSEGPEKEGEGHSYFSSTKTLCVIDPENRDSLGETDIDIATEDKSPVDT
Method in brief: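 N-terminal GST-tagged human PDE4B (aa 305-end, Sf9-expressed) preincubated 10 min with compound in 10 mM Tris-HCl pH 7.5, 5 mM MgCl2, 0.01% Brij 35, 1 mM DTT, 1% DMSO, then 1 h at room temperature with 1 μM cAMP. AMP detected by Transcreener fluorescence polarization (Ex/Em 620/688), converted to nM product; % activity relative to DMSO.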

| Structure (SMILES) | PDE4 activity |
| --- | --- |
| Cc1cnc(N(C)c2ccc3c(c2)COB3O)nc1OC1CCCCC1 [A, 5-((4-(cyclohexyloxy)-5-methylpyrimidin-2-yl)(methyl)amino)benzo[c][1,2]oxaborol-1(3H)-ol, reference compound] | diminish in PDE4 activity |
| Cc1cnc(N(C)c2ccc3c(c2)COB3O)nc1NC1CCCC1 [B, 5-((4-(cyclopentylamino)-5-methylpyrimidin-2-yl)(methyl)amino)benzo[c][1,2]oxaborol-1(3H)-ol, reference compound] | diminish in PDE4 activity |
